Assay type in all cases: cell-based
One test has as its system YFP-GPI. In words: Surface transport of YFP-GPI in HeLa cells. Conditions: 18 h; 1 ig/ml BFA or 10 iM FLI-06.
The test system of a further test is ER. Kind of test: ER tubule-to-sheet live-cell imaging in COS cells (prlss-KDEL-mRFP). As to the method: FIG. 7: FLI-06 induces ER sheet formation. A) COS cells transfected with prlss-KDEL-mRFP were incubated with 10 μM FLI-06 for indicated times and imaged by live-cell microscopy. The inserts are magnifications of the boxed areas. B) Images from cells treated as in A) were scored for the percentage of cells that lost most of their ER-tubules. For each time point 40-60 cells were counted. Data represent mean percentages, error bars SEM, n=3 independent experiments.
FIG. 16: Only ER exit inhibitors convert ER tubules to sheets. COS cells plated on LabTek chambered coverslips were transiently transfected with the ER-marker prlss-KDEL-mRFP, incubated the next day for 2 h with 10 iM of indicated compounds and imaged by live-cell microscopy. […] FLI-06+CHX, cells were additionally incubated in 40 iM cycloheximide. Nife, nifedipine; nimo, nimodipine. Numbers refer to numbering in FIG. 5a.
We noted a morphological change of the ER upon FLI-06 incubation that was difficult to capture in fixed cells. Live-cell imaging was therefore performed in COS cells transfected with the ER marker prlss-KDEL-mRFP (supp. Ref 3) and FLI-06 was added for 120 min (FIG. 7a). After 120 min almost all cells had no detectable ER-tubules anymore and instead were filled with large sheet-like structures. […] To test whether the morphological change is related to the inhibition of ER exit, next our set of FLI-06 derivatives was tested. […] Rather, the ER-sheets are indicative for structural changes, maybe initiated within ERES, that inhibit ER exit.

Another test concerns VSVG-EGFP.
In the next test the test system is Golgi apparatus. In words: Immunofluorescence of Golgi and early secretory pathway markers in HeLa cells.
Another test deals with T1, GBF1 (Homo sapiens, UniProt Q92538).
T1 construct: expressed in transfected cells; host or cells: HeLa (transient)
Kind of test: GBF1-GFP distribution in transfected HeLa cells. The settings on record: FLI-06 10 μM, BFA 10 μg/ml, GCA 10 μM, 10 h.

A further test has as its system Klotho. In words: Klotho trafficking/processing in HEK293 cells stably expressing Klotho. Conditions: 10 μM, 16 h. As to the method:
FIG. 3: Effect of compounds on NotchΔE-EGFP, APP and Klotho trafficking and processing. a) HEK293 stably expressing APPswe or Klotho (KI) were incubated with DAPT or compounds (10 μM) for 16 h. Media were collected, cells lysed and both assayed by Western blotting using indicated antibodies. m, mature; im, immature; s, shedded ectodomain; CTF, C-terminal fragment. b) Membranes from HeLa-NotchΔE-EGFP and APPswe cells were isolated and subjected to a γ-secretase in vitro assay in the presence of DAPT or compounds as indicated. NICD and AICD were detected by Western Blotting using antibodies against the C-terminus of APP (top) or antibodies specific for NICD (bottom). c) Quantitation from 5 independent experiments.
To test whether FLI-06 affected other membrane proteins, Klotho, a type I protein processed like APP and Notch^20, was analyzed. […] To analyze γ-secretase activity, in vitro assays using isolated membranes were performed (FIG. 3b, c). Production of NICD-EGFP and AICD (APP intracellular domain) were assayed. Both were produced in vitro at 37° C. but not at 4° C., and their production was inhibited by DAPT.
APP, APPs, APPCTF and Aβ detection was as described before^54 using antibodies 22C11 for APP and APPs, 6687 for APPCTF and 3552 and 2D8 for Aβ. Klotho was detected as described in Bloch et al.^20. Chemoluminescence was quantified on a LAS-4000 (Fuji) with MultiGauge software.

A further test relates to KlothoS. Kind of test: Secretion of KlothoS from transfected HeLa cells. The settings on record: 18 h. As to the method:
Thereafter cells were fixed and analyzed by immunofluorescence microscopy. […] After incubating with compounds for 18 h media were collected, cells lysed and both analyzed by Western Blotting using Klotho antibody. As loading control membranes were probed for actin. […] […] Tunicamycin (Tun) and 5 mM DTT were used as positive controls. […] Shown is the average of three independent experiments, error bars indicate standard deviation.

The test system of another test is endocytosis. Kind of test: Transferrin uptake assay. As to the method:
FIG. 13: FLI-06 causes dispersal of early Golgi and TGN, but no tubulation of endosomes. Hela cells were incubated with DMSO or 10 iM FLI-06 or 1 ig/ml BFA for 18 h, fixed, stained with antibodies as indicated and imaged by fluorescence microscopy. Endosomes were visualized by adding Alexa555-labelled transferrin on ice and chasing for 15 min at 37° C. in the presence of indicated compounds. Arrows indicated tubulating endosomes, scalebar 10 im.
For the transferrin uptake assay cells were starved in serum free medium for 1 h at 37° C. Cells were then transferred on ice and medium was exchanged to serum free medium supplemented with 25 μg/ml AlexaFluor555-Transferrin conjugate (Molecular Probes) and test compounds. After 15 min on ice cells were incubated with pre-warmed serum-supplemented medium containing test compounds and incubated at 37° C.

The test system of another test is DND-41 cells. Kind of test: Growth of DND-41 cells (FACS). As to the method: FIG. 18: FLI-06 inhibits secretion of secreted alkaline phosphates; FLI-06 kills cancerous, Notch dependent T-cells. a) The secreted alkaline phosphatase (SEAP) assay was carried out. Medium was collected and SEAP secretion was measured via photometry. […] The cells were grown in suspension with the indicated amounts of FLI-06 or DMSO control and growth was determined via FACS analysis.
To test whether FLI-06 would ultimately be useful to treat cancerous diseases we incubated DND-41 cells having a Notch heterodimerization domain that leads to hyperactive Notch signaling (Weng et al, Science, 2004) with FLI-06.

SMILES strings stand for the structures.

We go through 1 compound from patent US9828344B2, “Inhibitors of the notch signaling pathway and secretion for use in medicine” (Leibniz-Institut für Altersforschung Fritz-Lipmann-Institut …, priority 2012, dated 2017).

T1 sequence (Q92538 whole entry, species assumed): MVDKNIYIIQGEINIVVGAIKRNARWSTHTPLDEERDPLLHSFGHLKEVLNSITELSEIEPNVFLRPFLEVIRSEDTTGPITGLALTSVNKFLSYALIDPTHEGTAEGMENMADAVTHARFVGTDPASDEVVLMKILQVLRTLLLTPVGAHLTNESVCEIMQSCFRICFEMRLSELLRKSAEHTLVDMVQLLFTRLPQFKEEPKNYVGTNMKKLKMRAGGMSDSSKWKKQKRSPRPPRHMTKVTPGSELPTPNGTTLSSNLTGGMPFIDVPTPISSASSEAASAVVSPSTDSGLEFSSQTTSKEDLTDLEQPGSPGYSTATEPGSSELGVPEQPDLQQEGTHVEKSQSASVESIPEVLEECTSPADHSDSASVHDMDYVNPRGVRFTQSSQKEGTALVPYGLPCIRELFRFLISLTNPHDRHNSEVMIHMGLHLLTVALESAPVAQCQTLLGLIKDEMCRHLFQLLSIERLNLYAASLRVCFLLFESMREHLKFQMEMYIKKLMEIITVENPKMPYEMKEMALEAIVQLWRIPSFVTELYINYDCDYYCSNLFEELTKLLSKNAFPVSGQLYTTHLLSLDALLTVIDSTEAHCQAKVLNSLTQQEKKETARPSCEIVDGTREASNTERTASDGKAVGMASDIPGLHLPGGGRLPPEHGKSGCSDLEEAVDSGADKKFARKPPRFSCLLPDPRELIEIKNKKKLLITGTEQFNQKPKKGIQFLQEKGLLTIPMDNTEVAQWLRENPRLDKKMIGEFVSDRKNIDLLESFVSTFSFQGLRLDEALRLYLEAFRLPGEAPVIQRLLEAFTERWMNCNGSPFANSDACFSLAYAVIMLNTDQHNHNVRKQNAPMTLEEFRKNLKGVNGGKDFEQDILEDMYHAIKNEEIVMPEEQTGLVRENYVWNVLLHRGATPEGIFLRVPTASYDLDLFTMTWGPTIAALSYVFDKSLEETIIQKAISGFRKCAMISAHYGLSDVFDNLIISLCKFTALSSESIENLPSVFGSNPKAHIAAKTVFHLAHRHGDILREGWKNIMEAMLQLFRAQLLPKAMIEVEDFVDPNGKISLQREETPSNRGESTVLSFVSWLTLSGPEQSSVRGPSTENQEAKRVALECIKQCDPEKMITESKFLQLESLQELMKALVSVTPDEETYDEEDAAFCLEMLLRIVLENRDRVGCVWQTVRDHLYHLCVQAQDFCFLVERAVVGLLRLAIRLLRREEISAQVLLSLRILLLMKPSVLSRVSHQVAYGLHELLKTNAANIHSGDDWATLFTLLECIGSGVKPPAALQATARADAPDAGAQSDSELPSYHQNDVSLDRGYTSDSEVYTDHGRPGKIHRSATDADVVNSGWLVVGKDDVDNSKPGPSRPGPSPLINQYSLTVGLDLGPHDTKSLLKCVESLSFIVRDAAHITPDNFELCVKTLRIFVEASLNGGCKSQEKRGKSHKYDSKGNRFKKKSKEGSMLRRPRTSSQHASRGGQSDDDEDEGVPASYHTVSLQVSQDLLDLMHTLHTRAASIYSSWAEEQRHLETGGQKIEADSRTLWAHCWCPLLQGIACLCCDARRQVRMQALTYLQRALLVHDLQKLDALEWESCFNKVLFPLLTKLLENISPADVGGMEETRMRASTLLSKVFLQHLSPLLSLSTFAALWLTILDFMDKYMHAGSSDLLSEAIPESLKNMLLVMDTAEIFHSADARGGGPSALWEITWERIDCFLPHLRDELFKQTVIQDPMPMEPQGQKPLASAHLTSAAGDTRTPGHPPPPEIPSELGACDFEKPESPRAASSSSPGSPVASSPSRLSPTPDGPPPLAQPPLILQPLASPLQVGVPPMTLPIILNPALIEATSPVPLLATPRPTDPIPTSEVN

In the case of `CC1=C(C(=O)OC2CCCCC2)C(c2ccc([N+](=O)[O-])cc2)C2=C(CC(C)(C)CC2=O)N1` (centres unmarked) [FLI-06, Cyclohexyl 4-(4′-nitrophenyl)-2,7,7-trimethyl-5-oxo-1,4,5,6,7,8-hexahydroquinoline-3-carboxylate], the “surface transport of YFP-GPI” value in the test with YFP-GPI was “inhibit surface transport of YFP-GPI”. Further, in the test with ER (10 μM FLI-06), the “start of ER sheet-formation” value fell in the range of 5 to 10 min and the “t1/2 of ER sheet-formation” value is listed as “about 14 min”. The ER tubule-to-sheets phenotype entry in the test on ER (10 iM, 2 h) is “elicited the tubule-to-sheets phenotype”. In the test with VSVG-EGFP, the “recruitment of VSVG-EGFP to ERES” value is “strongly reduced” and the “velocity of action on ER export” value is listed as “acts instantaneously on ER export”. Also, the “Golgi integrity (giantin)” value in the test with Golgi apparatus (10 μM, 18 h) is “complete disruption of the Golgi”. In the test on Golgi apparatus (1 ig/ml BFA or 10 iM FLI-06), the “time to loss of Golgi-like juxtanuclear βCOP staining” value was in the range of 30 to 40 min. Further, the “distribution of GM130 and TGN46” value in the test on Golgi apparatus (10 iM FLI-06 or 1 ig/ml BFA, 18 h) was “dispersal of the cis-Golgi marker GM130 and of the trans-Golgi network (TGN) marker TGN46”. Also, in the test with Golgi apparatus (4 h at 40° C. with cycloheximide), the “hyperglycosylation of VSVG-EGFP” value is listed as “did not cause a hyperglycosylation”. Further, the tubulation of endosomes entry with Golgi apparatus (Alexa555-transferrin labelled endosomes) is “did not cause tubulation of endosomes”. The “fusion of ER and Golgi” value in the test with Golgi apparatus (prlss-KDEL-mRFP and B4GALT-EGFP markers) was “did not lead to fusion of ER and Golgi”. Further, the “distribution of GBF1-GFP” value at GBF1 is given as “displayed the distribution of control cells”. Further, in the test on Klotho, the “glycosylation of Klotho” value is on record as “aberrant glycosylation”; the “mature, complex-glycosylated post-Golgi form of Klotho” value was “strongly reduced”; the “shedded Klothos in the medium” value is “strong reduction of Klothos in the medium”. Moreover, in the test with KlothoS, the “secretion of KlothoS” value is recorded as “inhibit secretion of KlothoS”. For the same compound, the endocytosis of transferrin result in the test with endocytosis is listed as “did not affect endocytosis”. Further, in the test on DND-41 cells (1 μM), the “effect on DND-41 cells” value was “inhibited proliferation”. In addition, the “effect on DND-41 cells” value in the test on DND-41 cells (10 μM) is reported as “total cell death after 4 days”.
